Test results as given in the CheMixHub ionic liquid set.
± gives the uncertainty stated by the source.

Assay: xn = mol fraction of the nth substance listed
Conditions: 101 kPa

CCCCCCCCCCCCCCCC[n+]1ccccc1.O=C([O-])c1ccccc1O + NCC(=O)NCC(=O)O + O
electrical conductivity [S/m]
Conditions	293.15 K	298.15 K	303.15 K
x2 = 0.0009002, x1 = 3.6e-07	0.0016 ± 9.6e-05	0.0019 ± 0.00011	0.00224 ± 0.00013
x2 = 0.0009002, x1 = 7.2e-07	0.00178 ± 0.00011	0.0021 ± 0.00013	0.00248 ± 0.00015
x2 = 0.0009002, x1 = 1.09e-06	0.00197 ± 0.00012	0.00232 ± 0.00014	0.00272 ± 0.00016
x2 = 0.0009002, x1 = 1.27e-06	0.00204 ± 0.00012	0.00241 ± 0.00014	0.00282 ± 0.00017
x2 = 0.0009002, x1 = 1.63e-06	0.00215 ± 0.00013	0.00253 ± 0.00015	0.00296 ± 0.00018
x2 = 0.0009002, x1 = 1.99e-06	0.00228 ± 0.00014	0.00269 ± 0.00016	0.00318 ± 0.00019
x2 = 0.0009002, x1 = 2.36e-06	0.00242 ± 0.00015	0.00285 ± 0.00017	0.00336 ± 0.0002
x2 = 0.0009002, x1 = 2.72e-06	0.00254 ± 0.00015	0.00298 ± 0.00018	0.0035 ± 0.00021
x2 = 0.0009002, x1 = 3.08e-06	0.00261 ± 0.00016	0.00307 ± 0.00018	0.0036 ± 0.00022
x2 = 0.0009002, x1 = 3.44e-06	0.00272 ± 0.00016	0.00319 ± 0.00019	0.00373 ± 0.00023
x2 = 0.0009002, x1 = 3.81e-06	0.00285 ± 0.00017	0.00334 ± 0.0002	0.00389 ± 0.00023
x2 = 0.0009002, x1 = 4.35e-06	0.00298 ± 0.00018	0.00348 ± 0.00021	0.00404 ± 0.00024
x2 = 0.0009002, x1 = 4.71e-06	0.00311 ± 0.00019	0.00362 ± 0.00022	0.00422 ± 0.00025
x2 = 0.0009002, x1 = 5.26e-06	0.00322 ± 0.00019	0.00374 ± 0.00022	0.00435 ± 0.00026
x2 = 0.0009002, x1 = 5.62e-06	0.00334 ± 0.0002	–	–
x2 = 0.001799, x1 = 1.8e-07	0.00253 ± 0.00015	0.00303 ± 0.00018	–
x2 = 0.001799, x1 = 3.6e-07	0.0026 ± 0.00016	0.00311 ± 0.00019	–
x2 = 0.001799, x1 = 5.5e-07	0.00269 ± 0.00016	0.00321 ± 0.00019	–
x2 = 0.001799, x1 = 7.3e-07	0.00282 ± 0.00017	0.00336 ± 0.0002	–
x2 = 0.001799, x1 = 9.1e-07	0.00291 ± 0.00017	0.00345 ± 0.00021	–
x2 = 0.001799, x1 = 1.28e-06	0.00301 ± 0.00018	0.00357 ± 0.00021	–
x2 = 0.001799, x1 = 1.46e-06	0.00313 ± 0.00019	0.0037 ± 0.00022	–
x2 = 0.001799, x1 = 1.82e-06	0.00325 ± 0.0002	0.00384 ± 0.00023	–
x2 = 0.001799, x1 = 2.19e-06	0.00335 ± 0.0002	0.00397 ± 0.00024	–
x2 = 0.001799, x1 = 2.55e-06	0.00347 ± 0.00021	0.0041 ± 0.00025	–
x2 = 0.001799, x1 = 2.92e-06	0.00355 ± 0.00021	0.00419 ± 0.00025	–
x2 = 0.001799, x1 = 3.46e-06	0.00371 ± 0.00022	0.00437 ± 0.00026	–
x2 = 0.001799, x1 = 3.83e-06	0.00379 ± 0.00023	0.00447 ± 0.00027	–
